The values below come from patent publication US20250084056A1, “SUBSTITUTED OXOISOINDOLINYL PIPERIDINE-2,6-DIONE COMPOUNDS” (BRISTOL-MYERS SQUIBB COMPANY, priority 2023, published 2025).

Bounds are passed on as bounds.

Common to all, as to assay type: cell-based
One assay concerns Phospho-Rb (Ser807/811). Nature of the assay: Phospho-Retinoblastoma (pRB) Cellular Assay. Conditions: Homo sapiens, OVCAR-3, NIH OVCAR3 cells, 24 hours; for IC50: concentration giving 50% response; for Emax: maximum response, reference compound at 10 μM = 100%, read-out: pRB Ymax. Here is the method:
Phospho-Retinoblastoma (pRB) Cellular Assay
NIH OVCAR3 (HTB-161, American Type Culture Collection, Manassas VA) cells were grown up to passage 10 in culture media made up of RPMI (11835-030 Gibco, Grand Island NY), 20% HI FBS (16140-071, Gibco, Grand Island NY), and 0.01 mg/mL insulin from bovine pancreas (I6634-1G, Sigma Aldrich, St. Louis, MO).
The cells were seeded in a 384-well CulturPlate (6007688, Perkin Elmer, Waltham MA) at a density of 10,000 cells/well in 20 μL of the above culture media and incubated overnight at 37° C. and 5% CO2.
The next day, cells were treated using an Echo 650 (Beckman Coulter, Indianapolis IN) acoustic dispenser with 40 nL of compounds dissolved in DMSO at the appropriate serial dilutions (10 mM to […]). Cells were then incubated for 24 hours as above.
After 24 hours elapsed, media was removed from each well and shortly after 20 μL of the following mix was added: 12 μL deionized water, 4 μL lysis buffer, 4 μL of reconstituted antibody mix, and 1:100 phosphatase inhibitor. These components belong to the Phospho-Rb (Ser807/811) Cellular Kit (64RBS807PEY, Perkin Elmer, Waltham MA).
Plates were sealed and incubated away from light at room temperature for at least 4 hours before reading them on an EnVision plate reader (Perkin Elmer, Waltham MA) according to the kit manufacturer's protocol. The reference compound, N-(5-{[(5-tert-butyl-1,3-oxazol-2-yl)methyl]sulfanyl}-1,3-thiazol-2-yl)piperidine-4-carboxamide, at 10 μM was used to define 100% response. Assay results for each compound were reported as IC50, the concentration giving 50% response, and Ymax, the maximum response observed with the compound.

The target of a further assay is Cyclin E1 (Homo sapiens, UniProt P24864+Q96SW2). Nature of the assay: Cyclin E1 Cellular Degradation Assay (MSD). On the set-up: endogenous in cells; host or cells: OVCAR3. Conditions: for DC50 / Dmax: Cyclin E1 cellular degradation; for Dmax: maximum degradation; for Ratio of GSPT1 DC50/Cyclin E1 DC50: selectivity for degradation of Cyclin E1 over GSPT1. Here is the method: Culturing cells: On Day 0, OVCAR3 cells were plated at 15,000 cells/well in 40 μL of culture medium (RPMI1640, 20% FBS, 0.01 insulin, 1% Anti/Anti) in a 384 well cell culture plate. Cell cultures were incubated for 24 hours at 37° C. and 5% CO2.
Coating MSD plates: On Day 1, rabbit anti-CCNE1 antibody (Abcam ab33911, 1 μg/mL in DPBS, […]) was dispensed to a Meso Scale Discovery plate (MSD L21XA). The MSD plate was spun briefly to ensure the solution coated the bottom of the well and incubated overnight at 4° C. On Day 2, the plate was washed 3 times with TBS +0.2% TWEEN, blocked for 1 hour with 3% MSD Blocker A (MSD R93AA-1, 30 μL/well), then washed again 3 times with TBS+0.2% TWEEN.
Treating and lysing cells: On Day 1, compounds of interest were dispensed into the cell cultures by acoustic dispensing technology. The cell cultures were then spun at 400 g for 4 minutes to disperse the compounds and incubated at 37° C. and 5% CO2 for 24 hours. After incubation, 40 μL of DPBS was added to the cell cultures to dilute the media. All liquid was gently discarded and immediately replaced with 30 μL of lysis buffer (MSD Tris Lysis buffer (MSD R60TX-2), Halt Protease inhibitor (ThermoFisher 78438), Phosphatase Inhibitor II (Sigma-Aldrich P5726), Phosphatase Inhibitor III (Sigma-Aldrich P0044), 0.02M PMSF (Sigma-Aldrich 7626), 0.1% SDS (VWR E719-100ML)). The plate was then sealed, shaken at 300 rpm at room temperature for 5 minutes, and freeze-thawed for optimum cell lysis.
Collecting data: After thawing, 25 μL of lysate was transferred to a coated MSD plate. The plate was then sealed and shaken at 300 rpm overnight in 4° C. On Day 3, the MSD plate was washed 3 times with TBS+0.2% TWEEN. Mouse anti-CCNE1 antibody (Abcam ab238081, 0.5 μg/mL in 1% MSD Blocker A, 10 μL/well) dispensed to the MSD plate, which was then sealed and shaken at room temperature for 3 hours. After the first antibody incubation, the plate was washed 3 times with TBS+0.2% TWEEN, then goat anti-mouse Sulfo-Tag antibody (MSD R32AC, 1 μg/mL in 1% MSD Blocker A, 10 μL/well) was dispensed to the MSD plate. The plate was sealed again and shaken at room temperature for 1 hour, then washed 3 times with TBS+0.2% TWEEN. After the final wash, 35 μL of 1× Read Buffer (MSD R92TC-1) was added to each well and the data was captured using the MSD plate reader. The reference compound, [2-(2,6-dioxopiperidin-3-yl)-4-methoxy-3-oxo-2,3-dihydro-1H-isoindol-5-yl]methyl N-[4-(3,4-difluorophenoxy)phenyl]carbamate, at […] was used to define […]. Assay results for each compound were reported as DC50, the concentration giving 50% response, and Dmax, the maximum response observed with the compound.

A further assay addresses GSPT1 (Homo sapiens, UniProt P15170+Q96SW2). Briefly: GSPT1 Cellular Degradation Assay (DF15-GSPT1-ePL). Further details: expressed in transfected cells. Conditions: DF15-GSPT1-ePL cells, 20 hours. The source says:
DF15-GSPT1-ePL was used for intracellular GSPT1 protein degradation detection in form of chemiluminescent signal, which was built on a human DF15 cell line (CVCL_Y429) with conditional co-expression of chimeric GSPT1 (target) and ePL/donor (enhanced ProLabel® by DiscoverX for enzyme fragment complementation with donor-acceptor pairing). The cells used the culture medium in two arrangements for assay and maintenance. During assay, it used Core-RPMI 1640 medium with 10% Fetal Bovine Serum (Heat Inactivated) and 1× Penicillin/Streptomycin; and during passage maintenance, used added ingredients: 0.1 mM NEAA, 1 mM sodium pyruvate, 25 mM Hepes, 0.1% Pluronic F-68, 1× Glutamin, 4 μg/mL Blasticidin (selection agent). Detection was performed on a 1536 well tissue culture plate (Corning #3727) with cells seeded in 3.5 μL core-RPMI 1640 at density of 0.25 million/mL after the pre-titrated test compounds in DMSO on ECHO plate were dispensed onto the assay plate by use of ECHO (liquid handing system via acoustic energy from Labcyte). Assay incubation lasted 20 hours in 37° C. incubator with 5% CO2; then followed by 30 minutes of plate-cooling at room temperature; then detection-reagent-mix was added in 3.5 μL/well with pre-defined proportion of enzyme acceptor, substrate, and lysis buffer. Plate signal reading for luminescence on an EnVision plate reader (PerkinElmer) was conducted after 60 minutes of former step at room temperature. Raw data was collected and processed with Dotmatics (data analyzer) for test compound's potency values. The reference compound, 3-[5-(3,6-dimethoxyisoquinolin-1-yl)-1-oxo-2,3-dihydro-1H-isoindol-2-yl]piperidine-2,6-dione, at […] was used to define 75% response. Assay results for each compound were reported as DC50, the concentration giving 50% response, and Dmax, the maximum response observed with the compound.

Sequence of Cyclin E1 (P24864 whole entry): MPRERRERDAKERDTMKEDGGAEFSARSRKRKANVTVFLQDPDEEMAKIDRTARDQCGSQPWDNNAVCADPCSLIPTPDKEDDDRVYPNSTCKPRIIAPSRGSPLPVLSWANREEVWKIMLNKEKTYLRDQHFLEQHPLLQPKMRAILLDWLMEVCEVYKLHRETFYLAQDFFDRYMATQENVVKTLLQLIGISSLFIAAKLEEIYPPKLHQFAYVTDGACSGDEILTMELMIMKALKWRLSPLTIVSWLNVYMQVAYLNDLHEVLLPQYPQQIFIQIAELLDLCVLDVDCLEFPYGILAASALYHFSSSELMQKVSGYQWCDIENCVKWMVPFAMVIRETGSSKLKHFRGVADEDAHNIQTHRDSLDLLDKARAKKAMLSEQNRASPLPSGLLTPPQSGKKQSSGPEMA
Sequence of Cyclin E1 (Q96SW2 whole entry): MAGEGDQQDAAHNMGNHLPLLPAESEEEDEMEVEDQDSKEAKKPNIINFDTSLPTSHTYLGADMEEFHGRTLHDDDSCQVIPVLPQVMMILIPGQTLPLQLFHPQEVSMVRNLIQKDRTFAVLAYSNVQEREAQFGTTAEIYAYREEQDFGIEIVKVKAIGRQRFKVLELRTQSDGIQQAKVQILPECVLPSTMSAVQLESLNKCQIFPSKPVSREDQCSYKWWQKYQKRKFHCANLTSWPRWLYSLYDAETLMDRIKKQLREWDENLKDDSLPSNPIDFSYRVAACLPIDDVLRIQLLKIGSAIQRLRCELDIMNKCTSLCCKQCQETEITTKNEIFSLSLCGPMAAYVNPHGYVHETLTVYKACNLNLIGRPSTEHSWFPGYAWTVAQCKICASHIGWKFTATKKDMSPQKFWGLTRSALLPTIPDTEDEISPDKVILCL
Sequence of Cyclin E1 (Q16531 whole entry partner): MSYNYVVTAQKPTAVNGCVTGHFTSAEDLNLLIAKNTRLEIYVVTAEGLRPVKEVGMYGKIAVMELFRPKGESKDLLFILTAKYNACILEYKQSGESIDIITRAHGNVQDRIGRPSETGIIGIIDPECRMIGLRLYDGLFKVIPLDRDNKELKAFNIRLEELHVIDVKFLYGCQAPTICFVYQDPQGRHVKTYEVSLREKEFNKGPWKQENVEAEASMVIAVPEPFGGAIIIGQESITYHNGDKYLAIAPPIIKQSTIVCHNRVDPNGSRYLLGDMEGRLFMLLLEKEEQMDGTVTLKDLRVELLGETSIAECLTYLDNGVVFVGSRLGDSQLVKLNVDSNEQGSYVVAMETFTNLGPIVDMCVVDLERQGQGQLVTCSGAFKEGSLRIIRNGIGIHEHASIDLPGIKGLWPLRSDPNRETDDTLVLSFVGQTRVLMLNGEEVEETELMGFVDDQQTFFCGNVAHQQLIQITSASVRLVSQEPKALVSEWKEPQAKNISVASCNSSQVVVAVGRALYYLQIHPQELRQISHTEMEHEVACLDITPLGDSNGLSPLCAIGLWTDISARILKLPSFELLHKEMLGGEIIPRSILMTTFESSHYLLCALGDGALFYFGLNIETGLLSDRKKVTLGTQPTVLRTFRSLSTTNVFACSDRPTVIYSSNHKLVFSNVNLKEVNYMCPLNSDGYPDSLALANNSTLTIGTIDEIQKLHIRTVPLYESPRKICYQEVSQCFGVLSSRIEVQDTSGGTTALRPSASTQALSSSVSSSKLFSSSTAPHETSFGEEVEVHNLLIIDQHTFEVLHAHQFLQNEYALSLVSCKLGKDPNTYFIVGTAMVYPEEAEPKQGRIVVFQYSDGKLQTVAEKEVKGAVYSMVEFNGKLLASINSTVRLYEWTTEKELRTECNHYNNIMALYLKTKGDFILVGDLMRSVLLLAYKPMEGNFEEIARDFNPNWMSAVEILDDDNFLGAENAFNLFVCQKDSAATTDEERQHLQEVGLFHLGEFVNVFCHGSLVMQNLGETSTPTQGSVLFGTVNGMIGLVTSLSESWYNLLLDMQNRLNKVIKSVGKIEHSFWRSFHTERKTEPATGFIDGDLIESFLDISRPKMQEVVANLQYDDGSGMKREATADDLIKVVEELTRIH
Sequence of GSPT1 (P15170 whole entry, the tested form may be a part): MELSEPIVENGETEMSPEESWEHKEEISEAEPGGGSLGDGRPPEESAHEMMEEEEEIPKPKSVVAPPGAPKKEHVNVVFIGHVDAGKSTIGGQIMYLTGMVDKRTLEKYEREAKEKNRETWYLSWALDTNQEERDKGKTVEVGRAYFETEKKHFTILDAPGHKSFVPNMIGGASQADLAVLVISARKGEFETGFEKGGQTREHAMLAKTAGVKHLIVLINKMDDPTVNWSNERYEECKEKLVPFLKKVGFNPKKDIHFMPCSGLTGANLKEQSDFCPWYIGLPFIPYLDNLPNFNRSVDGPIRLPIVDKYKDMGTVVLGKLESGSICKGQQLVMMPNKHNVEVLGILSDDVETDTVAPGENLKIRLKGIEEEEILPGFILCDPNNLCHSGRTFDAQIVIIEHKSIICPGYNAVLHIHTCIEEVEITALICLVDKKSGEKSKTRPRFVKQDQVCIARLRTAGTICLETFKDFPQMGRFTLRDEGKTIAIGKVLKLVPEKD
Sequence of GSPT1 (Q96SW2 whole entry, the tested form may be a part): as the sequence (Q96SW2 whole entry) above
Sequence of GSPT1 (Q16531 whole entry partner, the tested form may be a part): as the sequence (Q16531 whole entry partner) above

For the molecule `COc1c(COC(=O)Nc2ccc(Oc3ccc(F)c(F)c3)cc2)ccc2c1C(=O)N([C@@H]1CCC(=O)NC1=O)C2` (single isomer, unassigned) [Example 36], in the assay with Phospho-Rb (Ser807/811), the IC50 (in general, the midpoint of a concentration-inhibition curve) was found to be 339 nM and the Emax is 98%. Moreover, at Cyclin E1, half-maximal degradation (DC50) was put at 257 nM; the Dmax (in general, the greatest extent of degradation seen) came out at 108%; the “Ratio of GSPT1 DC50/Cyclin E1 DC50” value is reported as more than 54. For the same molecule, on GSPT1, the DC50 (commonly the concentration giving 50% degradation) is more than 14000 nM and the Dmax was found to be 28%.
Turning to `CC(C)Oc1c(COC(=O)Nc2ccc(Oc3ccc(F)c(F)c3)cc2)ccc2c1C(=O)N([C@H]1CCC(=O)NC1=O)C2` (single isomer, unassigned) [Example 125], in the assay on Phospho-Rb (Ser807/811), the IC50 was determined as 98 nM and the Emax was 138%. Further, at Cyclin E1, the DC50 worked out at 263 nM, the Dmax came out at 107% and the “Ratio of GSPT1 DC50/Cyclin E1 DC50” value is listed as more than 53. Further, on GSPT1, the DC50 is more than 14000 nM and the Dmax was 7%.
As for `COc1c(COC(=O)Nc2ccc(Oc3ccc(F)c(F)c3)cc2)ccc2c1C(=O)N(C1CCC(=O)NC1=O)C2` (stereo not shown) [Example 1, [2-(2,6-dioxopiperidin-3-yl)-4-methoxy-3-oxo-2,3-dihydro-1H-isoindol-5-yl]methyl N-[4-(3,4-difluorophenoxy)phenyl]carbamate], in the assay with Phospho-Rb (Ser807/811), the concentration for half-maximal inhibition (IC50) was determined as 133 nM and the Emax came out at 104%. Besides, on Cyclin E1, the DC50 worked out at 199 nM, the Dmax was 110% and the “Ratio of GSPT1 DC50/Cyclin E1 DC50” value is more than 70. On GSPT1, the DC50 is more than 14000 nM and the Dmax is 27%.
As to `COc1c(COC(=O)Nc2ccc(Oc3ccccc3)cc2)ccc2c1C(=O)N(C1CCC(=O)NC1=O)C2` (stereo not shown) [Example 2, [2-(2,6-dioxopiperidin-3-yl)-4-methoxy-3-oxo-2,3-dihydro-1H-isoindol-5-yl]methyl N-(4-phenoxyphenyl)carbamate], in the assay on Phospho-Rb (Ser807/811), the IC50 was found to be 83 nM and the Emax amounted to 123%. At Cyclin E1, the DC50 came to 78 nM, the Dmax worked out at 108% and the “Ratio of GSPT1 DC50/Cyclin E1 DC50” value is given as more than 180. In addition, on GSPT1, the DC50 is more than 14000 nM and the Dmax turned out to be 32%.
For `COc1c(COC(=O)Nc2ccc(Oc3cccc(Cl)c3)cc2)ccc2c1C(=O)N(C1CCC(=O)NC1=O)C2` (stereo not shown) [Example 3, [2-(2,6-dioxopiperidin-3-yl)-4-methoxy-3-oxo-2,3-dihydro-1H-isoindol-5-yl]methyl N-[4-(3-chlorophenoxy)phenyl]carbamate], in the assay on Phospho-Rb (Ser807/811), the half-inhibitory concentration (IC50) was 103 nM and the Emax was 120%. Besides, on Cyclin E1, it took 91 nM to reach half-maximal degradation (DC50), the Dmax came out at 112% and the “Ratio of GSPT1 DC50/Cyclin E1 DC50” value was more than 153. At GSPT1, the DC50 was more than 14000 nM and the Dmax worked out at 34%.
On to `COc1c(COC(=O)Nc2ccc(Oc3cccc(F)c3)cc2)ccc2c1C(=O)N(C1CCC(=O)NC1=O)C2` (stereo not shown) [Example 4, [2-(2,6-dioxopiperidin-3-yl)-4-methoxy-3-oxo-2,3-dihydro-1H-isoindol-5-yl]methyl N-[4-(3-fluorophenoxy)phenyl]carbamate], for which, in the assay on Phospho-Rb (Ser807/811), the IC50 worked out at 89 nM and the Emax was 109%. In addition, on Cyclin E1, the DC50 was 39 nM, the Dmax was 108% and the “Ratio of GSPT1 DC50/Cyclin E1 DC50” value is given as more than 355. Moreover, at GSPT1, the DC50 is more than 14000 nM and the Dmax amounted to 35%.
For `O=C1CCC(N2Cc3ccc(COC(=O)Nc4ccc(Oc5ccc(F)cc5Cl)cc4)c(O[C@@H]4CCOC4)c3C2=O)C(=O)N1` (stereo partly drawn) [Example 155, [2-(2,6-dioxopiperidin-3-yl)-3-oxo-4-[(3R)-oxolan-3-yloxy]-2,3-dihydro-1H-isoindol-5-yl]methyl N-[4-(2-chloro-4-fluorophenoxy)phenyl]carbamate], in the assay on Phospho-Rb (Ser807/811), the IC50 turned out to be 188 nM and the Emax was 116%. Moreover, on Cyclin E1, the DC50 was 176 nM and the Dmax worked out at 100%.
On the same counts, the results for `O=C1CCC(N2Cc3ccc(COC(=O)Nc4ccc(Oc5cccc(F)c5F)cc4)c(O[C@@H]4CCOC4)c3C2=O)C(=O)N1` (stereo partly drawn) [Example 156, [2-(2,6-dioxopiperidin-3-yl)-3-oxo-4-[(3R)-oxolan-3-yloxy]-2,3-dihydro-1H-isoindol-5-yl]methyl N-[4-(2,3-difluorophenoxy)phenyl]carbamate] are 39 nM, 116%, 101 nM and 103%.
On to `O=C1CCC(N2Cc3ccc(COC(=O)Nc4ccc(Oc5ccc(F)cc5F)cc4)c(O[C@@H]4CCOC4)c3C2=O)C(=O)N1` (stereo partly drawn) [Example 157, [2-(2,6-dioxopiperidin-3-yl)-3-oxo-4-[(3R)-oxolan-3-yloxy]-2,3-dihydro-1H-isoindol-5-yl]methyl N-[4-(2,4-difluorophenoxy)phenyl]carbamate], for which, in the assay with Phospho-Rb (Ser807/811), the IC50 amounted to 65 nM and the Emax was 119%. At Cyclin E1, the DC50 came to 116 nM and the Dmax is 99%.
Turning to `O=C1CCC(N2Cc3ccc(COC(=O)Nc4ccc(Oc5cccc(Cl)c5)cc4)c(O[C@@H]4CCOC4)c3C2=O)C(=O)N1` (stereo partly drawn) [Example 158, [2-(2,6-dioxopiperidin-3-yl)-3-oxo-4-[(3R)-oxolan-3-yloxy]-2,3-dihydro-1H-isoindol-5-yl]methyl N-[4-(3-chlorophenoxy)phenyl]carbamate], in the assay with Phospho-Rb (Ser807/811), the midpoint of inhibition, the IC50, lay at 175 nM and the Emax was 109%. Further, on Cyclin E1, half-maximal degradation (DC50) was put at 74 nM and the Dmax worked out at 104%.
